Common to all, as to assay type: biochemical
The target in test [1] is human Janus kinase 1 (JAK1), recombinant catalytic domain (Homo sapiens (Human), UniProt P23458). Description: LanthaScreen TR-FRET enzymatic assay, JAK1. To be noted: 1 mM ATP, GFP-STAT1 substrate, read-out: Inhibitory Activity IC50 JAK1. The method, boiled down: (§1)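 Insect-cell-expressed catalytic domains (JAK1 aa 866-1154, 440 ng/mL; JAK2 aa 808-1132, 11 ng/mL; JAK3 aa 781-1124, 400 ng/mL; TYK2 aa 833-1187, 200 ng/mL) preincubated 15 min with compound, then reacted 1 h at room temperature with 100 nM GFP-STAT1 and 1 mM ATP. pTyr701 detected by TR-FRET (terbium antibody); IC50 from 10-dose sigmoid fits.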

Test [2] deals with human Janus kinase 2 (JAK2), recombinant catalytic domain (Homo sapiens (Human), UniProt O60674). Nature of the test: LanthaScreen TR-FRET enzymatic assay, JAK2. Put shortly: as §1
For orientation: Time-resolved FRET reads energy transfer from a long-lived donor to a nearby acceptor.

For test [3], the target named is human tyrosine kinase 2 (TYK2), recombinant catalytic domain (Homo sapiens (Human), UniProt P29597). Description: LanthaScreen TR-FRET enzymatic assay, TYK2. Particulars: TR-FRET, 1 mM ATP, GFP-STAT1 substrate; read-out: Inhibitory Activity IC50 TYK2. The method, boiled down:
as §1

In test [4] the test system is human tyrosine kinase 2 (TYK2), recombinant catalytic domain. Nature of the test: LanthaScreen TR-FRET enzymatic assay, TYK2. To be noted: ratio of IC50 against TYK2 over IC50 against JAK1. Put shortly: as §1

Sequence of human Janus kinase 2 (JAK2), recombinant catalytic domain (O60674 808-1132): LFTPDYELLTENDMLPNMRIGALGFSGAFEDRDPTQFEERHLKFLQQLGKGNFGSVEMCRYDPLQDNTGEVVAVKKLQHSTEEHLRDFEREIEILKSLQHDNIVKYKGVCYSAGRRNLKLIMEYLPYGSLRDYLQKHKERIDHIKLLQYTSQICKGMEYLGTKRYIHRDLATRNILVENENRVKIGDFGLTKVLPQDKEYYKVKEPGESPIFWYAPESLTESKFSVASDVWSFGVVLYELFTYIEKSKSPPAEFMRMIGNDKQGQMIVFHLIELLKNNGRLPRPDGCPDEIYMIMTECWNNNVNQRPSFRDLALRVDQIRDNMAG
Sequence of human tyrosine kinase 2 (TYK2), recombinant catalytic domain (Homo sapiens (Human), UniProt P29597) (P29597 833-1187): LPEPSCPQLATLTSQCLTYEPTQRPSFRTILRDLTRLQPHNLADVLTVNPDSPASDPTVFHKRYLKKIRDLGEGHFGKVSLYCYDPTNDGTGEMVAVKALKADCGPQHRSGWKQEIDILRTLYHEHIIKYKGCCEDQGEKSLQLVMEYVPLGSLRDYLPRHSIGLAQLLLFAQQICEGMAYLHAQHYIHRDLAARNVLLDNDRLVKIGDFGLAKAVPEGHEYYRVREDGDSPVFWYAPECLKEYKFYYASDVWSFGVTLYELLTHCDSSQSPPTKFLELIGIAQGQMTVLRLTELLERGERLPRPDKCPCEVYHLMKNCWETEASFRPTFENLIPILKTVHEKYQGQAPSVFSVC
Sequence of human Janus kinase 1 (JAK1), recombinant catalytic domain (P23458 866-1154): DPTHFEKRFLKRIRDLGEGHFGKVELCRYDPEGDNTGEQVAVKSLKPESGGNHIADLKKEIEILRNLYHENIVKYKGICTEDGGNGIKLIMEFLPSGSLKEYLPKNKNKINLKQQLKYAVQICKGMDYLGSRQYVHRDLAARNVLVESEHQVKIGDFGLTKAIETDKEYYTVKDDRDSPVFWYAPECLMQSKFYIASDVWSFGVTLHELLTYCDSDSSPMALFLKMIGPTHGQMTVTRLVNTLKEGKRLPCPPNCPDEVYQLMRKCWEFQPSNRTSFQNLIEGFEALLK

By IC50 is commonly meant the concentration that inhibits the measured activity by half. Consider `O=C(Nc1cn2c(-c3ccc(CN4CCS(=O)(=O)CC4)cc3F)cccc2n1)C1CC1` [Compound 14], for which the IC50 in test [1] is at most 500 nM; in test [2] (TR-FRET, 1 mM ATP, GFP-STAT1 substrate, read-out: Inhibitory Activity IC50 JAK2) it was 1000 to 5000 nM; in test [3], 1000 to 5000 nM. In test [2] (ratio of IC50 against JAK2 over IC50 against JAK1), the “Selectivity JAK2/JAK1” value was “A′ (A′ represents a ratio of greater than 8)”. For the same compound, the “Selectivity TYK2/JAK1” value in test [4] was “A′ (A′ represents a ratio of greater than 8)”.

These data come from US10730875B2, “Substituted imidazo[1,2-A]pyridin-2-ylamine compounds, and pharmaceutical compositions and methods of use thereof” (JN Therapeutics, priority 2015, dated 2020).
